“And” between values parts separate entries of the source, which are not always exact repeats. Equal values may be shown once. Read-outs that look alike come from different tables or passages of the source.
Columns and labels:
Assay type in all cases: cell-based
[1] = system: Halo–p53-Y220C ΔTAD–mCherry 293T cells; assay: caspase 3/7 glo; details: for mean_norm (caspase 3/7 glo): Cell_Line Y220C, normalized to Concentration 0; for raw caspase 3/7 glo signal, single replicate: Y220C
Procedure: (§1) Cells were plated in 384-well plates (typically 1,500 cells per well) with varying concentrations of compounds with a total volume of 50 μl per well. After 1 day, caspase 3/7 glo reagent (Promega) was added following the manufacturer’s protocol and read out using an EnVision 2105 multimode plate reader.

parental 293T cells [2] = assay: caspase 3/7 glo; details: for mean_norm (caspase 3/7 glo): Cell_Line WT, normalized to Concentration 0; for raw caspase 3/7 glo signal, single replicate: WT
Procedure: as §1

parental 293T cells [3] = assay: cell-cycle analysis (DNA content, DAPI flow cytometry); details: 1 day; for 2N / 4N / Right_of_Gate1 (replicates) / Right_of_Gate2 (replicates): WT
Procedure: (§2) Cells were split into a 10-cm dish at low confluency (20%) and grown overnight. Cells were synchronized using overnight treatment with palbociclib (150 nM), washed and split into a six-well plate for treatment with compound for 24 h. Cells were harvested by trypsinization, washed twice with cold 1× PBS, fixed by dropwise addition of ice-cold 70% ethanol while vortexing and incubated overnight (4 °C). Fixed samples were centrifuged at 1,000g for 5 min and 70% ethanol was removed. Cells were washed twice with 1× PBS + 1% BSA before DNA labeling with 1 µg ml^−1 DAPI for 10 min at room temperature, before being analyzed for DNA content by flow cytometry (Beckman CytoFLEX LX).

[4] = system: Halo–p53-Y220C ΔTAD–mCherry 293T cells; assay: as above; parameters: 4N / 8N / Right_of_Gate1 (replicates) / Right_of_Gate2 (replicates) / 2N: unit not given here; details: 1 day; for 2N / 4N / 8N / Right_of_Gate1 (replicates) / Right_of_Gate2 (replicates): Y220C
Procedure: as §2

parental 293T cells [5] = assay: annexin–PI staining; details: for P3_avg (P3 = early apoptotic) / P5_avg (P5 = late apoptotic): Cell_Line WT, proportion of cells; for avgprop_P3 / avgprop_P4 / avgprop_P5 / avgprop_P2 / P2_viable / P3_AnnexinPos_PIneg / P4_PIpos_AnnexinNeg / P5_PIpos_Annexinpos / prop_P3 / prop_P4 / prop_P5 / prop_P2: WT; for avgprop_P3: average proportion AnnexinPos PIneg; for avgprop_P4: average proportion PIpos AnnexinNeg; for avgprop_P5: average proportion PIpos Annexinpos; for avgprop_P2: average proportion viable; for P2_viable / P3_AnnexinPos_PIneg / P4_PIpos_AnnexinNeg / P5_PIpos_Annexinpos: event count; for P2_viable / P3_AnnexinPos_PIneg / P4_PIpos_AnnexinNeg / P5_PIpos_Annexinpos / prop_P3 / prop_P4 / prop_P5 / prop_P2: single replicate; for prop_P3: proportion AnnexinPos PIneg; for prop_P4: proportion PIpos AnnexinNeg; for prop_P5: proportion PIpos Annexinpos; for prop_P2: proportion viable
Procedure: Cells were plated in six-well plates and treated with varying concentrations of compounds for 1 day. Cells were stained with annexin V–AF488 and PI following the manufacturer’s instructions (Thermo Fisher, V13241) and analyzed by flow cytometry (Beckman CytoFLEX LX), using untreated cells to establish gates.

[6] = CellTiter-Glo cell viability; details: human, BxPC-3 cells, BXPC3, 4 day, read-out: mean_norm (normalized viability)
Procedure: Cells were plated in 384-well plates (typically 1,500 cells per well) with varying concentrations of compounds, with a total volume of 50 μl per well. CTG reagent was added (25 μl) to the solutions, mixed and read out using an EnVision 2105 multimode plate reader.

[7] = Conc 0.38 (unit not given; p53-01 in μM, BI2536 in nM)
[8] = Conc 0.75 (unit not given; p53-01 in μM, BI2536 in nM)
[9] = Conc 1.50 (unit not given; p53-01 in μM, BI2536 in nM)

Question: Which results are given for CC[C@@H]1C(=O)N(C)c2cnc(Nc3ccc(C(=O)NCCOCCOCCOCCOCCC(=O)N4CCC(Nc5cccc6c5cc(C#CCNc5ccc(S(C)(=O)=O)cc5OC)n6CC(F)(F)F)CC4)cc3OC)nc2N1C1CCCC1 [p53-01, PMV6-PEG4-BI2536]?
Answer: mean_norm (caspase 3/7 glo) ([1]; Concentration 19.5312): 1.044; mean_norm (caspase 3/7 glo) ([1]; Concentration 39.0625): 0.9705; mean_norm (caspase 3/7 glo) ([1]; Concentration 78.125): 0.9927; mean_norm (caspase 3/7 glo) ([1]; Concentration 156.25): 0.9639; mean_norm (caspase 3/7 glo) ([1]; Concentration 312.5): 0.9272; mean_norm (caspase 3/7 glo) ([1]; Concentration 625): 0.8899; mean_norm (caspase 3/7 glo) ([1]; Concentration 1250): 1.234; mean_norm (caspase 3/7 glo) ([1]; Concentration 2500): 2.011; mean_norm (caspase 3/7 glo) ([1]; Concentration 5000): 2.316; mean_norm (caspase 3/7 glo) ([1]; Concentration 10000): 2.222; raw caspase 3/7 glo signal, single replicate ([1]; Concentration 19.5312): 122690 and 136337 and 118028 and 144163; raw caspase 3/7 glo signal, single replicate ([1]; Concentration 39.0625): 117294 and 127747 and 106194 and 133419; raw caspase 3/7 glo signal, single replicate ([1]; Concentration 78.125): 123437 and 120512 and 118467 and 133301; raw caspase 3/7 glo signal, single replicate ([1]; Concentration 156.25): 105036 and 125984 and 107588 and 142722; raw caspase 3/7 glo signal, single replicate ([1]; Concentration 312.5): 120420 and 114761 and 112118 and 115705; raw caspase 3/7 glo signal, single replicate ([1]; Concentration 625): 92711 and 123269 and 91753 and 136660; raw caspase 3/7 glo signal, single replicate ([1]; Concentration 1250): 148294 and 147349 and 143892 and 176603; raw caspase 3/7 glo signal, single replicate ([1]; Concentration 2500): 271302 and 236256 and 229038 and 267460; raw caspase 3/7 glo signal, single replicate ([1]; Concentration 5000): 327582 and 262469 and 277595 and 289089; raw caspase 3/7 glo signal, single replicate ([1]; Concentration 10000): 286008 and 259961 and 264959 and 298921; induction of apoptosis ([1]; versus parental 293T, caspase 3/7 glo and annexin–PI, 1 day): differentially induced apoptosis; mean_norm (caspase 3/7 glo) (parental 293T cells [2]; Concentration 19.5312): 1.032; mean_norm (caspase 3/7 glo) (parental 293T cells [2]; Concentration 39.0625): 0.9788; mean_norm (caspase 3/7 glo) (parental 293T cells [2]; Concentration 78.125): 1.009; mean_norm (caspase 3/7 glo) (parental 293T cells [2]; Concentration 156.25): 0.9403; mean_norm (caspase 3/7 glo) (parental 293T cells [2]; Concentration 312.5): 0.9336; mean_norm (caspase 3/7 glo) (parental 293T cells [2]; Concentration 625): 0.8748; mean_norm (caspase 3/7 glo) (parental 293T cells [2]; Concentration 1250): 1.007; mean_norm (caspase 3/7 glo) (parental 293T cells [2]; Concentration 2500): 1.185; mean_norm (caspase 3/7 glo) (parental 293T cells [2]; Concentration 5000): 1.4986; mean_norm (caspase 3/7 glo) (parental 293T cells [2]; Concentration 10000): 1.763; raw caspase 3/7 glo signal, single replicate (parental 293T cells [2]; Concentration 19.5312): 133494 and 117337 and 138819 and 114789; raw caspase 3/7 glo signal, single replicate (parental 293T cells [2]; Concentration 39.0625): 123804 and 109630 and 139391 and 105438; raw caspase 3/7 glo signal, single replicate (parental 293T cells [2]; Concentration 78.125): 123731 and 127401 and 120215 and 121439; raw caspase 3/7 glo signal, single replicate (parental 293T cells [2]; Concentration 156.25): 127240 and 99863 and 130913 and 101408; raw caspase 3/7 glo signal, single replicate (parental 293T cells [2]; Concentration 312.5): 120672 and 107314 and 116046 and 112110; raw caspase 3/7 glo signal, single replicate (parental 293T cells [2]; Concentration 625): 120568 and 89735 and 125147 and 91991; raw caspase 3/7 glo signal, single replicate (parental 293T cells [2]; Concentration 1250): 122108 and 116864 and 133954 and 118859; raw caspase 3/7 glo signal, single replicate (parental 293T cells [2]; Concentration 2500): 139477 and 137713 and 153198 and 148518; raw caspase 3/7 glo signal, single replicate (parental 293T cells [2]; Concentration 5000): 207130 and 170945 and 175970 and 178176; raw caspase 3/7 glo signal, single replicate (parental 293T cells [2]; Concentration 10000): 233886 and 204323 and 214988 and 207998; DNA content (parental 293T cells [3]; 0.75 μM, synchronized cells): unaffected; 2N (parental 293T cells [3]; [7]): 59.15; 4N (parental 293T cells [3]; [7]): 37.20; Right_of_Gate1 (replicates) (parental 293T cells [3]; [7]): 40.85 and 40.98 and 41.52; Right_of_Gate2 (replicates) (parental 293T cells [3]; [7]): 3.65 and 3.77 and 3.58; 2N (parental 293T cells [3]; [8]): 59.00; 4N (parental 293T cells [3]; [8]): 37.55; Right_of_Gate1 (replicates) (parental 293T cells [3]; [8]): 41.00 and 43.44 and 43.05; Right_of_Gate2 (replicates) (parental 293T cells [3]; [8]): 3.45 and 3.41 and 3.53; 2N (parental 293T cells [3]; [9]): 35.77; 4N (parental 293T cells [3]; [9]): 52.80; Right_of_Gate1 (replicates) (parental 293T cells [3]; [9]): 64.23 and 64.42 and 63.80; Right_of_Gate2 (replicates) (parental 293T cells [3]; [9]): 11.43 and 12.05 and 12.32; DNA content ([4]; 0.75 μM, synchronized cells): accumulation of Halo–p53-Y220C ΔTAD–mCherry 293T cells with 4 N DNA content; cells with genome doubling (8 N DNA content) ([4]; 1.5 μM): ~ 60%; 2N [4, 7]: 58.97; 4N [4, 7]: 39.03; 8N [4, 7]: 2.00; Right_of_Gate1 (replicates) [4, 7]: 41.03 and 37.34 and 37.12; Right_of_Gate2 (replicates) [4, 7]: 2.00 and 2.08 and 2.06; 2N [4, 8]: 39.09; 4N [4, 8]: 57.44; 8N [4, 8]: 3.47; Right_of_Gate1 (replicates) [4, 8]: 60.91 and 56.52 and 59.94; Right_of_Gate2 (replicates) [4, 8]: 3.47 and 3.35 and 3.58; 2N [4, 9]: 1.94; 4N [4, 9]: 38.53; 8N [4, 9]: 59.53; Right_of_Gate1 (replicates) [4, 9]: 98.06 (2×) and 98.33; Right_of_Gate2 (replicates) [4, 9]: 59.53 and 59.10 and 58.35; P3_avg (P3 = early apoptotic) (parental 293T cells [5]; Concentration 0.75): 0.05911; P5_avg (P5 = late apoptotic) (parental 293T cells [5]; Concentration 0.75): 0.02085; P3_avg (P3 = early apoptotic) (parental 293T cells [5]; Concentration 1.5): 0.05067; P5_avg (P5 = late apoptotic) (parental 293T cells [5]; Concentration 1.5): 0.02081; avgprop_P3 (parental 293T cells [5]; Concentration 0.75): 0.05911; avgprop_P4 (parental 293T cells [5]; Concentration 0.75): 0.03071; avgprop_P5 (parental 293T cells [5]; Concentration 0.75): 0.02085; avgprop_P2 (parental 293T cells [5]; Concentration 0.75): 0.8893; P2_viable (parental 293T cells [5]; Concentration 0.75): 1988 and 1975 and 1922; P3_AnnexinPos_PIneg (parental 293T cells [5]; Concentration 0.75): 134 and 116 and 141; P4_PIpos_AnnexinNeg (parental 293T cells [5]; Concentration 0.75): 58 and 71 and 74; P5_PIpos_Annexinpos (parental 293T cells [5]; Concentration 0.75): 48 and 44 and 46; prop_P3 (parental 293T cells [5]; Concentration 0.75): 0.06014 and 0.05258 and 0.06459; prop_P4 (parental 293T cells [5]; Concentration 0.75): 0.02603 and 0.03218 and 0.0339; prop_P5 (parental 293T cells [5]; Concentration 0.75): 0.02154 and 0.01995 and 0.02107; prop_P2 (parental 293T cells [5]; Concentration 0.75): 0.8923 and 0.8953 and 0.8804; avgprop_P3 (parental 293T cells [5]; Concentration 1.5): 0.05067; avgprop_P4 (parental 293T cells [5]; Concentration 1.5): 0.03243; avgprop_P5 (parental 293T cells [5]; Concentration 1.5): 0.02081; avgprop_P2 (parental 293T cells [5]; Concentration 1.5): 0.8961; P2_viable (parental 293T cells [5]; Concentration 1.5): 1971 and 1980 and 1990; P3_AnnexinPos_PIneg (parental 293T cells [5]; Concentration 1.5): 112 and 109 and 115; P4_PIpos_AnnexinNeg (parental 293T cells [5]; Concentration 1.5): 75 and 68 and 72; P5_PIpos_Annexinpos (parental 293T cells [5]; Concentration 1.5): 48 and 43 and 47; prop_P3 (parental 293T cells [5]; Concentration 1.5): 0.05077 and 0.04955 and 0.05171; prop_P4 (parental 293T cells [5]; Concentration 1.5): 0.034 and 0.03091 and 0.03237; prop_P5 (parental 293T cells [5]; Concentration 1.5): 0.02176 and 0.01955 and 0.02113; prop_P2 (parental 293T cells [5]; Concentration 1.5): 0.8935 and 0.9 and 0.8948; viability at 4 day ([6]; Concentration 39.0625): 96%; viability at 4 day ([6]; Concentration 78.125): 94.9%; viability at 4 day ([6]; Concentration 156.25): 99%; viability at 4 day ([6]; Concentration 312.5): 91%; viability at 4 day ([6]; Concentration 10000): 44%; viability at 4 day ([6]; Concentration 20000): 25.6%

From article PMC13128454, “Mutant p53 protein accumulation is selectively targetable by proximity-inducing drugs” (Nature Chemical Biology, 2025)
